Where a name gives a salt, the structure may show the parent alone.

For the first test, the target named is T1, human prion protein 91–231 (Homo sapiens, UniProt P04156).
T1 construct: gene PRNP
Put plainly: biochemical. The format is binding.
Usually Kd stands for the free concentration of one partner at which half of the binding sites on the other are occupied at equilibrium, for simple one-to-one binding. With `COc1cc(-c2ccc(N=Nc3ccc4c(S(=O)(=O)O)cc(S(=O)(=O)O)c(N)c4c3O)c(OC)c2)ccc1N=Nc1ccc2c(S(=O)(=O)O)cc(S(=O)(=O)O)c(N)c2c1O` [Chicago Sky Blue 6B], binding was put at a Kd of 1.43 ± 0.24 µM.

For a further test, the target named is T2, human prion protein 23–231 (PrP, unlabeled wild type) (Homo sapiens, UniProt P04156).
T2 construct: gene PRNP
Kind of test: biochemical. The test is classed as binding.
The term IC50 denotes the concentration needed to halve the response being measured. Consider `C[C@@H]1[C@H](O)[C@@H](C)/C=C/C=C/C=C/C=C/C=C/C=C/C=C/[C@H](O[C@@H]2O[C@H](C)[C@@H](O)[C@H](N)[C@@H]2O)C[C@@H]2O[C@](O)(C[C@@H](O)C[C@@H](O)[C@H](O)CC[C@@H](O)C[C@@H](O)CC(=O)O[C@H]1C)C[C@H](O)[C@H]2C(=O)O` [Amphotericin B], for which 88.8 µM corresponded to half-maximal inhibition (IC50). `O=C1c2c(O)cccc2Cc2cccc(O)c21` [Anthralin]: the IC50 is above 100 µM.

`NC(CO)C(=O)NNCc1ccc(O)c(O)c1O` (stereo not shown) [Benserazide HCl]: the IC50 was above 100 µM. The compound `CC(C)/N=c1\cc2n(-c3ccc(Cl)cc3)c3ccccc3nc-2cc1Nc1ccc(Cl)cc1` [Clofazimine] showed an IC50 above 100 µM. `CC[N+](C)(CC)CCC[n+]1c(-c2ccccc2)c2cc(N)ccc2c2ccc(N)cc21` [Propidium iodide] showed an IC50 above 100 µM. Same read-out and setting: next, `COc1cc(C(=O)NS(=O)(=O)c2ccccc2C)ccc1Cc1cn(C)c2ccc(NC(=O)OC3CCCC3)cc12` [Zafirlukast]: 85.7 µM.
